Earlier results, collected in patent US20260176636A1, “APTAMER-DIRECT INHIBITOR CONJUGATES AND METHODS OF USING THE SAME” (Duke University, priority 2022, published 2026).
[invdT] = inverted (3'-3') thymidine

Tested on: human thrombin
Details: approximately 1 μM; cited from earlier work

Tog25t: thrombin exosite II-targeting RNA aptamer, SEQ ID NO: 12 (GGGAACAAAGCUGAAGUACUUACCC; [invdT] at 3' end, other sugars and backbone not given here; further chemistry not fully specified)
effect on aPTT clotting time: modest extension in aPTT clotting time
